Laboratory results from the RepoRT retention time repository (doi:10.1039/c4mb00346b).

Test: HILIC, Merck SeQuant ZIC-pHILIC, 150 × 2.1 mm, 5 µm, 0.1 mL/min, estimated dead time 3.3 min; A: acetonitrile; B: water + 10 mM ammonium carbonate; gradient (min/%B) 0/20 30/80
Conditions: stereoisomer not certain

Row | Compound | LC retention time
1 | CCCCCCCC(=O)OC(CC(=O)[O-])C[N+](C)(C)C (configuration not stated) [Octanoyl-carnitine] | 4.1 min
2 | CCCCCC(=O)OC(CC(=O)[O-])C[N+](C)(C)C (configuration not stated) [Hexanoyl-carnitine] | 4.8 min
3 | CC(C)CC(N)C(=O)O (configuration not stated) [Leucine] | 7.6 min
4 | OCC1OCC(O)C(O)C1O (configuration not stated) [1,5-Anhydroglucitol] | 9.2 min
5 | O=c1cc[nH]c(=O)[nH]1 [Uracil] | 7.2 min
6 | CC(=O)OC(CC(=O)[O-])C[N+](C)(C)C (configuration not stated) [Acetyl-carnitine] | 8.5 min
7 | C[N+](C)(C)C(Cc1cnc[nH]1)C(=O)[O-] (configuration not stated) [Trimethyl-histidine (hercynine)] | 9.7 min
8 | O=CC(O)COP(=O)(O)O (configuration not stated) [Glyceraldehyde-3-phosphate] | 13.2 min
9 | O=P(O)(O)OCC1OC(O)(COP(=O)(O)O)C(O)C1O (configuration not stated) [Fructose-1,6-diphosphate] | 15.5 min
10 | NC(CO)C(=O)O (configuration not stated) [Serine] | 13.1 min
11 | Nc1nc2c(ncn2C2OC(COP(=O)(O)O)C(O)C2O)c(=O)[nH]1 (configuration not stated) [GMP] | 14.1 min
12 | CSCCC(N)C(=O)O (configuration not stated) [Methionine] | 8.7 min
13 | O=S(=O)(O)Oc1c[nH]c2ccccc12 [Indoxyl-sulfate] | 4.9 min
14 | O=C(O)CC(O)C(=O)O (configuration not stated) [Malate] | 13.3 min
15 | CN1CC(=O)NC1=N [Creatinine] | 6.9 min
16 | Cn1cnc(CC(N)C(=O)O)c1 (configuration not stated) [Methyl-histidine] | 10.2 min
17 | Cn1cnc2c(ncn2C2OC(CO)C(O)C2O)c1=N (configuration not stated) [1-Methyl-adenosine] | 11.1 min
18 | Nc1nc2c(ncn2C2OC(COP(=O)(O)OP(=O)(O)OP(=O)(O)O)C(O)C2O)c(=O)[nH]1 (configuration not stated) [GTP] | 16.4 min
19 | CC(=O)SCCNC(=O)CCNC(=O)C(O)C(C)(C)COP(=O)(O)OP(=O)(O)OCC1OC(n2cnc3c(N)ncnc32)C(O)C1OP(=O)(O)O (configuration not stated) [Acetyl-CoA] | 10.5 min
20 | CC(C)(CO)C(O)C(=O)NCCC(=O)O (configuration not stated) [Pantothenate] | 6.1 min
21 | Nc1ccccc1C(=O)CC(N)C(=O)O (configuration not stated) [Kynurenine] | 8 min
22 | CC(=O)NC(CC(=O)O)C(=O)O (configuration not stated) [N-Acetyl-aspartate] | 12.5 min
23 | CCC(=O)OC(CC(=O)[O-])C[N+](C)(C)C (configuration not stated) [Propionyl-carnitine] | 7.2 min
24 | CC(=O)NCCCCC([NH3+])C(=O)[O-] (configuration not stated) [N6-Acetyl-lysine] | 10.5 min
25 | O=c1[nH]cnc2nc[nH]c12 [Hypoxanthine] | 7.6 min

Row | Compound | LC retention time
26 | O=P(O)(O)OCC1OC(O)C(O)C(O)C1O (configuration not stated) [Glucose-6-phosphate] | 14.2 min
27 | O=c1[nH]c(=O)c2[nH]c(=O)[nH]c2[nH]1 [Urate] | 10.7 min
28 | CCCC(=O)OC(CC(=O)[O-])C[N+](C)(C)C (configuration not stated) [Butyryl-carnitine] | 6.2 min
29 | NC(=O)c1cccnc1 [Nicotinamide] | 4.7 min
30 | O=C(O)C=C(CC(=O)O)C(=O)O [cis-Aconitate] | 15.5 min
31 | O=C(O)CCCCC1SCC2NC(=O)NC21 (configuration not stated) [Biotin] | 6.2 min
32 | Nc1ccc(C(=O)O)cc1 [4-Aminobenzoate] | 7.2 min
33 | CC(O)C(N)C(=O)O (configuration not stated) [Threonine] | 11.7 min
34 | O=C(O)CNC(=O)c1ccccc1 [Hippurate] | 4.4 min
35 | Nc1nc2c(ncn2C2OC(COP(=O)(O)OP(=O)(O)O)C(O)C2O)c(=O)[nH]1 (configuration not stated) [GDP] | 15.5 min
36 | C[N+](C)(C)CC(O)CC(=O)[O-] (configuration not stated) [Carnitine] | 10.9 min
37 | O=P(O)(O)OCC1OC(OP(=O)(O)OP(=O)(O)O)C(O)C1O [PRPP (5-Phospho-alpha-D-ribose 1-diphosphate)] | 16.5 min
38 | CN(CC(=O)O)C(N)=NP(=O)(O)O [Phosphocreatine] | 12.7 min
39 | C[N+](C)(C)CCOP(=O)([O-])OCC(O)CO (configuration not stated) [Glycerophosphocholine] | 12.1 min
40 | CC(=O)NC(CCC(=O)O)C(=O)O (configuration not stated) [N-Acetyl-glutamate] | 11.6 min
41 | NC(=O)CC(N)C(=O)O (configuration not stated) [Asparagine] | 12.4 min
42 | CC(=O)NC1C(OP(=O)(O)OP(=O)(O)OCC2OC(n3ccc(=O)[nH]c3=O)C(O)C2O)OC(CO)C(O)C1O (configuration not stated) [UDP-acetyl-glucosamine] | 12.8 min
43 | CC(=O)NC(CCCC[NH3+])C(=O)[O-] (configuration not stated) [N2-Acetyl-lysine] | 12.7 min
44 | C=C(OP(=O)(O)O)C(=O)[O-] [Phosphoenolpyruvate] | 15.1 min
45 | CN(C)C(N)=NCCCC(N)C(=O)O (configuration not stated) [Dimethyl-arginine] | 20 min
46 | NC(Cc1c[nH]c2ccccc12)C(=O)O (configuration not stated) [Tryptophan] | 8.7 min
47 | C[NH+](C)C(Cc1cnc[nH]1)C(=O)[O-] (configuration not stated) [Dimethyl-histidine] | 9.7 min
48 | CC(O)(CC(=O)O)C(=O)O (configuration not stated) [Citramalate] | 12.6 min
49 | O=c1ccn(C2OC(COP(=O)(O)OP(=O)(O)O)C(O)C2O)c(=O)[nH]1 (configuration not stated) [UDP] | 14 min
50 | CC(C)C(N)C(=O)O (configuration not stated) [Valine] | 9.8 min

Row | Compound | LC retention time
51 | NC(=NCCCC(N)C(=O)O)NC(CC(=O)O)C(=O)O (configuration not stated) [Arginino-succinate] | 14.2 min
52 | CN(C)CCCCC(N)C(=O)O (configuration not stated) [Dimethyl-lysine] | 19.2 min
53 | NC(Cc1ccc(O)cc1)C(=O)O (configuration not stated) [Tyrosine] | 10.3 min
54 | NC(CCC(=O)O)C(=O)O (configuration not stated) [Glutamate] | 12.1 min
55 | NC(Cc1ccccc1)C(=O)O (configuration not stated) [Phenylalanine] | 7.3 min
56 | O=C(O)C(O)CO (configuration not stated) [Glyceric acid] | 10.1 min
57 | NCCc1cnc[nH]1 [Histamine] | 24.8 min
58 | NC(=O)CCC(N)C(=O)O (configuration not stated) [Glutamine] | 12.2 min
59 | Nc1ncnc2c1ncn2C1OC(CO)C(O)C1O (configuration not stated) [Adenosine] | 6.2 min
60 | CCC(C)C(NC(C)=O)C(=O)O (configuration not stated) [N-Acetyl-(iso)leucine] | 4.4 min
61 | Cc1cc2nc3c(=O)[nH]c(=O)nc-3n(CC(O)C(O)C(O)COP(=O)(O)OP(=O)(O)OCC3OC(n4cnc5c(N)ncnc54)C(O)C3O)c2cc1C (configuration not stated) [FAD] | 9.4 min
62 | O=P(O)(O)OC(CO)CO [Glycerol-2-phosphate] | 12.2 min
63 | CC(O)(CC(=O)O)CC(=O)SCCNC(=O)CCNC(=O)C(O)C(C)(C)COP(=O)(O)OP(=O)(O)OCC1OC(n2cnc3c(N)ncnc32)C(O)C1OP(=O)(O)O (configuration not stated) [HMG-CoA] | 13.2 min
64 | CN(CC(=O)O)C(=N)N [Creatine] | 12.1 min
65 | CN(C)c1nc2c(ncn2C2OC(CO)C(O)C2O)c(=O)[nH]1 (configuration not stated) [Dimethyl-guanosine] | 6 min
66 | C[N+](C)(C)CCCC(=O)O [Butyro-betaine] | 10.9 min
67 | CC(C)(COP(=O)(O)OP(=O)(O)OCC1OC(n2cnc3c(N)ncnc32)C(O)C1OP(=O)(O)O)C(O)C(=O)NCCC(=O)NCCS (configuration not stated) [CoA] | 11.7 min
68 | O=C(O)C(O)C(O)C(O)C(O)CO (configuration not stated) [Gluconate] | 11.4 min
69 | O=C(O)C1CCCN1 (configuration not stated) [Proline] | 10.2 min
70 | NC(CC(=O)O)C(=O)O (configuration not stated) [Aspartate] | 12.5 min
71 | NC(=O)NCCCC(N)C(=O)O (configuration not stated) [Citrulline] | 13 min
72 | C[N+](C)(C)CCCCC(N)C(=O)[O-] (configuration not stated) [Trimethyl-lysine] | 20.7 min
73 | NC(=O)C1=CN(C2OC(COP(=O)(O)OP(=O)(O)OCC3OC(n4cnc5c(N)ncnc54)C(O)C3O)C(O)C2O)C=CC1 (configuration not stated) [NADH] | 11.1 min
74 | C[N+](C)(C)CCOP(=O)(O)OP(=O)([O-])OCC1OC(n2ccc(N)nc2=O)C(O)C1O (configuration not stated) [CDP-choline] | 13 min
75 | O=c1ccn(C2OC(COP(=O)(O)OP(=O)(O)OP(=O)(O)O)C(O)C2O)c(=O)[nH]1 (configuration not stated) [UTP] | 15.1 min

Row | Compound | LC retention time
76 | Nc1nc2c(ncn2C2OC(COP(=O)(O)OP(=O)(O)OC3OC(CO)C(O)C(O)C3O)C(O)C2O)c(=O)[nH]1 (configuration not stated) [GDP-glucose] | 15.5 min
77 | OC1C(O)C(O)C(O)C(O)C1O (configuration not stated) [myo-Inositol] | 14.4 min
78 | Nc1ccn(C2OC(COP(=O)(O)OP(=O)(O)O)C(O)C2O)c(=O)n1 (configuration not stated) [CDP] | 14.7 min
79 | NC(CCC(=O)NC(CSSCC(NC(=O)CCC(N)C(=O)O)C(=O)NCC(=O)O)C(=O)NCC(=O)O)C(=O)O (configuration not stated) [Glutathione disulfide (GSSG)] | 15 min
80 | OCC1OC(OC2OC(CO)C(O)C(O)C2O)C(O)C(O)C1O (configuration not stated) [Trehalose] | 13.6 min
81 | Nc1nc2c(ncn2C2OC(CO)C(O)C2O)c(=O)[nH]1 (configuration not stated) [Guanosine] | 9.8 min
82 | CC(=O)N[C@H]1C(O)O[C@H](CO)[C@@H](O)[C@@H]1O (stereo partly drawn) [N-Acetyl-D-glucosamine] | 9.3 min
83 | CNCCCCC(N)C(=O)O (configuration not stated) [Methyl-lysine] | 22.1 min
84 | O=C(O)CC(O)(CC(=O)O)C(=O)O [Citrate] | 15.5 min
85 | O=c1ccn(C2OC(COP(=O)(O)O)C(O)C2O)c(=O)[nH]1 (configuration not stated) [UMP] | 12.6 min
86 | O=c1ccn(C2OC(CO)C(O)C2O)c(=O)[nH]1 (configuration not stated) [Uridine] | 7.1 min
87 | O=C(O)c1cccnc1C(=O)O [Quinolinic acid] | 12.7 min
88 | NCCS(=O)(=O)O [Taurine] | 12.1 min
89 | C[N+]1(C)CCCC1C(=O)[O-] (configuration not stated) [Dimethyl-proline (stachydrine)] | 7.9 min
90 | NC(N)=NCCCC(N)C(=O)O (configuration not stated) [Arginine] | 24.8 min
91 | NC(CO)Cc1cnc[nH]1 (configuration not stated) [Histidinol] | 16.3 min
92 | CC(=O)NC(CCCN)C(=O)O (configuration not stated) [N-Acetyl-ornithine] | 11.1 min
93 | Nc1ccn(C2OC(COP(=O)(O)OP(=O)(O)OP(=O)(O)O)C(O)C2O)c(=O)n1 (configuration not stated) [CTP] | 15.5 min
94 | O=P(O)(O)OCC1OC(OC2OC(CO)C(O)C(O)C2O)C(O)C(O)C1O (configuration not stated) [Trehalose-6-phosphate] | 14.7 min
95 | NCCCCC(N)C(=O)O (configuration not stated) [Lysine] | 23.3 min
96 | Nc1ncnc2nc[nH]c12 [Adenine] | 6.6 min
97 | Nc1ncnc2c1ncn2C1OC(COP(=O)(O)O)C(O)C1O (configuration not stated) [AMP] | 11.5 min
